# Test results: article PMC10872270 (Cell reports, 2023)
# Legend:
# STAT1 phosphorylation = assay: Interferon α-induced STAT1 phosphorylation in MDA-MB-453 cells; assay type: cell-based; conditions: 3 μM pretreated for 24 hours, interferon α 30 minutes
# MDA-MB-453 cells = assay: SRB proliferation assay in growth medium; assay type: cell-based; conditions: parental MDA-MB-453 cells, seven days
# MDA-MB-453-AR-V7 cells = assay: SRB proliferation assay in growth medium; assay type: cell-based; conditions: seven days
# FKBP5 = assay: R1881-induced FKBP5 expression in MDA-MB-453 cells; conditions: 0.1 nM R1881, 3 μM, 24 hours
# AR = target: T1, AR (Homo sapiens, UniProt P10275); conditions: HEK-293 cells
# T1 sequence (P10275 1-920): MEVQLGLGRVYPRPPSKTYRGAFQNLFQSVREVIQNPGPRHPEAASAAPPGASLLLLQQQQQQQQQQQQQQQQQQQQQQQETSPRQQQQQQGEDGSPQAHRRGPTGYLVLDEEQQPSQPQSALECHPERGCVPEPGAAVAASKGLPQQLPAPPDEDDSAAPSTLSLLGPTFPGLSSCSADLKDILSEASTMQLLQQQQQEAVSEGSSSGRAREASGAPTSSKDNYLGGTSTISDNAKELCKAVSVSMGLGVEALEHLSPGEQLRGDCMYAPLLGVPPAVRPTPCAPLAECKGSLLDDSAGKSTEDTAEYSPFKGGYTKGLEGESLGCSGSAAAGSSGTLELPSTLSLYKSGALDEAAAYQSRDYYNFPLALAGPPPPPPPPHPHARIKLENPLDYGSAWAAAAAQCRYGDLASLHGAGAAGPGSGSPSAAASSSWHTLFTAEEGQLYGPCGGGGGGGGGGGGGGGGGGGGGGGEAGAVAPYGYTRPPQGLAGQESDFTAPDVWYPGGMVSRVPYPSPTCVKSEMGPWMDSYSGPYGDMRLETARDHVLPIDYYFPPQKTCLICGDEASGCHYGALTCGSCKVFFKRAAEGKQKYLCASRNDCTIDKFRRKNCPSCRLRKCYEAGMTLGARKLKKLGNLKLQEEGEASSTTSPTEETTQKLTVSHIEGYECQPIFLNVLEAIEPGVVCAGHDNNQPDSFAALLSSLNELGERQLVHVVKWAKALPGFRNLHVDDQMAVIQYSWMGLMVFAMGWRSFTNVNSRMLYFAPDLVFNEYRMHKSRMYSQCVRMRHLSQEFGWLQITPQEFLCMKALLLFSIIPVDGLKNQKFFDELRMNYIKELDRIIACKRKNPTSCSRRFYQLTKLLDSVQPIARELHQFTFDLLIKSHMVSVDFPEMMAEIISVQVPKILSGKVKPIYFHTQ
# [1] = test system: AR-target genes FKBP5, STEAP4, and TMPRSS2; assay: AR-target gene expression by real-time PCR in MDA-MB-453 cells; assay type: cell-based; conditions: 16–20 hours
# UT-1355 PDX = assay: UT-1355 TNBC PDX orthotopic xenograft; assay type: in vivo; conditions: female NSG mice; expresses AR-FL and AR-V7
# MDA-MB-453 tumors = assay: RNA-seq of MDA-MB-453 xenograft tumors; assay type: in vivo, mice; conditions: MDA-MB-453 xenograft tumors vs vehicle
# MDA-MB-453 xenograft = conditions: female mice supplemented with DHT; cited from earlier work
# [2] = test system: patients expressing AR-V7; conditions: clinical trial; alone or in combination with PI3K inhibitor taselisib; cited from earlier work
Structure (SMILES),interferon-α-induced phosphorylation of STAT1 (STAT1 phosphorylation),cell proliferation (MDA-MB-453 cells),cell proliferation (MDA-MB-453-AR-V7 cells),R1881-induced expression of FKBP5 (FKBP5),R1881-dependent AR transactivation in the absence of STAT1 (AR),STAT1-dependent increase in AR transactivation (AR; 0.1 μg STAT1),R1881-stimulated expression of FKBP5 [1],R1881-stimulated expression of STEAP4 [1],R1881-stimulated expression of TMPRSS2 [1],growth of UT-1355 PDX (UT-1355 PDX),differentially expressed genes in treated tumors (MDA-MB-453 tumors),MDA-MB-453 xenograft growth (MDA-MB-453 xenograft),effect in patients expressing AR-V7 [2]
N#CC[C@H](C1CCCC1)n1cc(-c2ncnc3[nH]ccc23)cn1 [ruxolitinib],completely inhibited,comparable inhibition,comparable inhibition,completely inhibited,no effect,inhibited,–,–,–,–,–,–,–
CNC(=O)c1ccc(N2C(=S)N(c3ccc(C#N)c(C(F)(F)F)c3)C(=O)C2(C)C)cc1F [enzalutamide],–,–,–,–,–,–,inhibited,inhibited,inhibited,modestly effective,eight,inhibits,failed to have an effect
